Laboratory results as given in US20240261417A1, “SOS1 DEGRADING AGENT AND PREPARATION METHOD THEREFOR AND APPLICATION THEREOF” (SHANGHAI LEADINGTAC PHARMACEUTICAL CO. LTD., priority 2021, published 2024).

Assays:
[1] = biological target: T1, KRAS-G12C/SOS1 (Homo sapiens, UniProt Q07889); experiment: KRAS-G12C/SOS1 binding assay (HTRF); conditions: inhibition of KRAS-G12C/SOS1 binding
T1 construct: purchased Cisbio 63ADKOOOCB16PEG
T1 sequence (Q07889 1-1333): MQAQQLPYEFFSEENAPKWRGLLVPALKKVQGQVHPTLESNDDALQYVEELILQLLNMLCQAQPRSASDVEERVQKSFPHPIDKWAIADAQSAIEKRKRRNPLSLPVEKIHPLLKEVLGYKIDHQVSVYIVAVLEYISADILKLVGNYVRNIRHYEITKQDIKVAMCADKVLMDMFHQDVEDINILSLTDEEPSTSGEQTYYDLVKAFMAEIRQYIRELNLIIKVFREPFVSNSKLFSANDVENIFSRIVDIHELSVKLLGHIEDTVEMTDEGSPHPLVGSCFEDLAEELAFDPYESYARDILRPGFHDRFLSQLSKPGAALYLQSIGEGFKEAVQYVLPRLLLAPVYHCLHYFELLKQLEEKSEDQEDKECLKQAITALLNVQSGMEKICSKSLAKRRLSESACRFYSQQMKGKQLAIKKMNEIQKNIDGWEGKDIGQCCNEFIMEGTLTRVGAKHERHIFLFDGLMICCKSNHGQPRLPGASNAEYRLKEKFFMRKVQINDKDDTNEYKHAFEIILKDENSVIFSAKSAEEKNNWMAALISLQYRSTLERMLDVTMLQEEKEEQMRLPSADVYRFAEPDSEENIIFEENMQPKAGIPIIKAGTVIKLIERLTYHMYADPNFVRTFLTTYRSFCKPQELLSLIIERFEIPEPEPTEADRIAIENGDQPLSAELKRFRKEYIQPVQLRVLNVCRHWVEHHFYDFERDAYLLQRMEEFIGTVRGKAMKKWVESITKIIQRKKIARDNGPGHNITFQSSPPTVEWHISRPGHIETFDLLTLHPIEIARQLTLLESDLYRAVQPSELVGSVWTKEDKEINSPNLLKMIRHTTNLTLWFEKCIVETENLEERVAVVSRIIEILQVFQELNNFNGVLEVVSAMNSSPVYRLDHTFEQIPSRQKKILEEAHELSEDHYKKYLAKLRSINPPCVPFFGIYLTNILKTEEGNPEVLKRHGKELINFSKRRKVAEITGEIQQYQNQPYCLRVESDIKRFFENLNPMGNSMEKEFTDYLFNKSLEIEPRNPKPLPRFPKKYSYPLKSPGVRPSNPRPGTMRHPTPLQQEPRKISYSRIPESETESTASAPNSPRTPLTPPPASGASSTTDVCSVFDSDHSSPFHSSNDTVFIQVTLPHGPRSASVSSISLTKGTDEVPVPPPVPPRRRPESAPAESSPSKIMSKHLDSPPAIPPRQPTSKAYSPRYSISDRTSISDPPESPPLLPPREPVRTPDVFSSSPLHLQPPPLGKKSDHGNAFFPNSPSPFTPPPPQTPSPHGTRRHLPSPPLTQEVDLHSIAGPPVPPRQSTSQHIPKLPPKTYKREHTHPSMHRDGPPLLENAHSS
Method: The following method was used to determine the extent of inhibition of KRAS-G12C/SOS1 binding by the preferred compounds of the present invention under in vitro conditions. In this method, the competitive inhibition of KRAS-G12C/SOS1 binding by the preferred compounds was assayed by the homogeneous time-resolved fluorescence (HTRF) technology using the KRAS-G12C/SOS1 binding assay kit (Cisbio, 63ADKOOOCB16PEG).
The experimental procedures were as follows (refer to the kit instructions for details): the compounds of the present invention were each firstly dissolved in DMSO at a concentration of 20 mM, and then diluted in an equal gradient with a buffer in the kit, so that the final concentrations of the test compounds in the reaction system were in a range of 10000 nM-0.04 nM, and the final concentration of DMSO was 0.5%. 2 μL of the compounds were each incubated with 4 μL of 1×Tag1-SOS1, 4 μL of 1×Tag2-KRAS-G12C (containing 10 μM guanosine triphosphate, GTP) at 25° C. for 15 min. Then 5 μL of 1× Anti-Tag1-Tb3+ and 5 μL of 1× Anti-Tag2-XL665 were added to the reaction system, and the mixture was incubated on ice for 3 h. After the incubation, the fluorescence intensity of each well was measured at the excitation wavelength of 337 nm, the fluorescence intensity of each well was read at the emission wavelengths of 620 nm and 665 nm on a microplate reader EnVision (PerkinElmer, 2105) in an HTRF mode, and the Ratio value was calculated by the formula Ratio=(665 nm/620 nm)×[…]. The inhibition rates of the compounds at each concentration were calculated by comparing the fluorescence intensity ratio with that of the control group, and then nonlinear curve fitting was performed by GraphPad Prism 8 in the logarithmic concentration-inhibition rate to obtain the IC50 values of the compounds, as shown in Table 1.

[2] = biological target: T2, SOS1 protein (Homo sapiens, UniProt Q07889); experiment: SOS1 degradation assay (Western blot), NCI-H358 cells; assay type: cell-based; design: The degradation of SOS1 by the compounds was investigated on KRAS G12C mutant human non-small cell lung cancer cells NCI-H358; host or cells: NCI-H358 (human cancer cell lines); conditions: SOS1 degradation, NCI-H358 cells, 24 h, Western blot; for DC50: read-out: NCI-H358 (G12C) DC50; for Dmax: read-out: NCI-H358 (G12C) Dmax
T2 sequence (Q07889 1-1333): T1 sequence (Q07889 1-1333)
Outline: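 SOS1 degradation was assessed by densitometry of Western blots, relative to untreated controls, after 24 h compound exposure (0.03–3000 nM final, 37 °C, 5% CO2) of cells seeded at 5×10^5/well. Log concentration–response fitting gave DC50 and Dmax.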

IC50 [1] [nM] | DC50 [2] [nM] | Dmax [2] [%] | Compound
≤ 15 | < 50 | 80 to 100 | COc1cc2nc(C)nc(N[C@H](C)c3cc(N)cc(C(F)(F)F)c3)c2cc1C1=CCC(C(=O)N2CCN(CC3CCC4(CC3)CCN(C(=O)c3ccc(Cl)c(N5CCC(=O)NC5=O)c3)CC4)CC2)CC1 (stereo partly drawn) [Example 51, 1-(5-(9-((4-(4-(4-(((R)-1-(3-amino-5-(trifluoromethyl)phenyl)ethyl)amino)-7-methoxy-2-methylquinazolin-6-yl)cyclohex-3-ene-1-carbonyl)piperazin-1-yl)methyl)-3-azaspiro[5.5]undecane-3-carbonyl)-2-chlorophenyl)dihydropyrimidine-2,4(1H,3H)-dione]
≤ 15 | < 50 | 50 to 80 | COc1cc2nc(C)nc(N[C@H](C)c3cc(N)cc(C(F)(F)F)c3)c2cc1C1=CCC(C(=O)N2CCC(CCOCC3CCN(C(=O)c4ccc(Cl)c(N5CCC(=O)NC5=O)c4)CC3)CC2)CC1 (stereo partly drawn) [Example 64, 1-(5-(4-((2-(1-(4-(4-(((R)-1-(3-amino-5-(trifluoromethyl)phenyl)ethyl)amino)-7-methoxy-2-methylquinazolin-6-yl)cyclohex-3-ene-1-carbonyl)piperidin-4-yl)ethoxy)methyl)piperidine-1-carbonyl)-2-chlorophenyl)dihydropyrimidine-2,4(1H,3H)-dione]
≤ 15 | < 50 | 50 to 80 | COc1cc2nc(C)nc(N[C@H](C)c3cc(-c4c(Cl)cccc4CN(C)C)cs3)c2cc1[C@H]1CC[C@H](C(=O)N2CCN(CC3CCC4(CC3)CCN(C(=O)c3ccc(F)c(N5CCC(=O)NC5=O)c3)CC4)CC2)CC1 [Example 60, 1-(5-(9-((4-((1R,4R)-4-(4-(((R)-1-(4-(2-chloro-6-((dimethylamino)methyl)phenyl)thien-2-yl)ethyl)amino)-7-methoxy-2-methylquinazolin-6-yl)cyclohexane-1-carbonyl)piperazin-1-yl)methyl)-3-azaspiro[5.5]undecane-3-carbonyl)-2-fluorophenyl)dihydropyrimidine-2,4(1H,3H)-dione]
≤ 15 | 50 to 100 | 50 to 80 | COc1cc2nc(C)nc(N[C@H](C)c3cc(-c4c(Cl)cccc4CN(C)C)cs3)c2cc1[C@H]1CC[C@H](C(=O)N2CCC(CCCC3CCN(C(=O)c4ccc(Cl)c(N5CCC(=O)NC5=O)c4)CC3)CC2)CC1 [Example 79, 1-(2-chloro-5-(4-(3-(1-((1R,4R)-4-(4-(((R)-1-(4-(2-chloro-6-((dimethylamino)methyl)phenyl)thien-2-yl)ethyl)amino)-7-methoxy-2-methylquinazolin-6-yl)cyclohexane-1-carbonyl)piperidin-4-yl)propyl)piperidine-1-carbonyl)phenyl)dihydropyrimidine-2,4(1H,3H)-dione]
≤ 15 | < 50 | – | COc1cc2nc(C)nc(N[C@H](C)c3cc(N)cc(C(F)(F)F)c3)c2cc1[C@H]1CC[C@H](C(=O)N2CCC(CCOCC3CCN(C(=O)c4ccc(F)c(N5CCC(=O)NC5=O)c4)CC3)CC2)CC1 [Example 44, 1-(5-(4-((2-(1-((1R,4R)-4-(4-(((R)-1-(3-amino-5-(trifluoromethyl)phenyl)ethyl)amino)-7-methoxy-2-methylquinazolin-6-yl)cyclohexane-1-carbonyl)piperidin-4-yl)ethoxy)methyl)piperidine-1-carbonyl)-2-fluorophenyl)dihydropyrimidine-2,4(1H,3H)-dione]
≤ 15 | < 50 | 50 to 80 | COc1cc2nc(C)nc(N[C@H](C)c3cc(N)cc(C(F)(F)F)c3)c2cc1[C@H]1CC[C@H](C(=O)N2CCN(CCCOC3CCN(C(=O)c4ccc(Cl)c(N5CCC(=O)NC5=O)c4)CC3)CC2)CC1 [Example 28, 1-(5-(4-(3-(4-((1R,4R)-4-(4-(((R)-1-(3-amino-5-(trifluoromethyl)phenyl)ethyl)amino)-7-methoxy-2-methylquinazolin-6-yl)cyclohexane-1-carbonyl)piperazin-1-yl)propoxy)piperidine-1-carbonyl)-2-chlorophenyl)dihydropyrimidine-2,4(1H,3H)-dione]
≤ 15 | – | – | COc1cc2nc(C)nc(N[C@H](C)c3cccc4c3CCS4(=O)=O)c2cc1[C@H]1CC[C@H](C(=O)N2CCC(CCOCC3CCN(C(=O)c4ccc(C(F)(F)F)c(N5CCC(=O)NC5=O)c4)CC3)CC2)CC1 [Example 66, 1-(5-(4-((2-(1-((1R,4R)-4-(4-(((R)-1-(1,1-dioxido-2,3-dihydrobenzo[b]thiophen-4-yl)ethyl)amino)-7-methoxy-2-methylquinazolin-6-yl)cyclohexane-1-carbonyl)piperidin-4-yl)ethoxy)methyl)piperidine-1-carbonyl)-2-(trifluoromethyl)phenyl)dihydropyrimidine-2,4(1H,3H)-dione]
≤ 15 | – | – | COc1cc2nc(C)nc(N[C@H](C)c3cccc4c3CCS4(=O)=O)c2cc1[C@H]1CC[C@H](C(=O)N2CCC(CCOCC3CCN(C(=O)c4ccc(Cl)c(N5CCC(=O)NC5=O)c4)CC3)CC2)CC1 [Example 55, 1-(2-chloro-5-(4-((2-(1-((1R,4R)-4-(4-(((R)-1-(1,1-dioxido-2,3-dihydrobenzo[b]thiophen-4-yl)ethyl)amino)-7-methoxy-2-methylquinazolin-6-yl)cyclohexane-1-carbonyl)piperidin-4-yl)ethoxy)methyl)piperidine-1-carbonyl)phenyl)dihydropyrimidine-2,4(1H,3H)-dione]
≤ 15 | – | – | COc1cc2nc(C)nc(N[C@H](C)c3cc(-c4c(Cl)cccc4CN(C)C)cs3)c2cc1[C@H]1CC[C@H](C(=O)N2CCC(CCOCC3CCN(C(=O)c4ccc(OC(F)(F)F)c(N5CCC(=O)NC5=O)c4)CC3)CC2)CC1 [Example 58, 1-(5-(4-((2-(1-((1R,4R)-4-(4-(((R)-1-(4-(2-chloro-6-((dimethylamino)methyl)phenyl)thien-2-yl)ethyl)amino)-7-methoxy-2-methylquinazolin-6-yl)cyclohexane-1-carbonyl)piperidin-4-yl)ethoxy)methyl)piperidine-1-carbonyl)-2-(trifluoromethoxy)phenyl)dihydropyrimidine-2,4(1H,3H)-dione]
